This is an account of results in patent publication US20040047823A1, “Use of ergothioneine and/or its derivatives as an anti-pollution agent” (priority 2003, published 2004).

For this assay, the system named is human keratinocytes. As to the kind of experiment: Protective effect against ozone-induced peroxides in human keratinocytes (2,7-dichlorofluorescine diacetate / DCF fluorescence). It is filed as cell-based. The settings on record: for % fluorescence observed ±SEM, expressed as % relative to the unprotected controls: ergothioneine 1 mM (24 h pretreatment at 0.5 mM), n=4; for drop in induced stress: ergothioneine 1 mM. As for the experimental part: In a first stage, human keratinocytes obtained from plastic surgeries, inoculated beforehand on D-3 into a 48-well dish at a rate of 25 000 cells/cm^2, are pretreated with ergothioneine dissolved in the culture medium for 24 hours, at a final concentration of 0.5 mM. A marker, 0,2,7-dichlorofluorescine diacetate, is then incorporated: after removing the ergothioneine solution and rinsing with PBS, the human keratinocytes are placed in contact for 30 minutes with a solution of 2,7-dichlorofluorescine diacetate (320 μM in phosphate-buffered saline PBS) at a rate of 500 μl per well, and are then rinsed again with PBS. The cells are then exposed to ozone: after placing the cells in contact with a fresh solution of ergothioneine in PBS at a concentration of 1 mM, at a rate of 100 μl per well, the cells are exposed to ozone in an incubator (37° C., humid atmosphere) with an ozone concentration of 10 ppm. The effects induced by the ozone are then measured by measuring the appearance of 2,7-dichloroflorescine (DCF: excitation at 485 nm and emission at 530 nm) after different exposure times: 0, 5, 10 and 20 minutes. Four independent experiments were performed and each measurement was repeated six times. The appearance of ozone-generated peroxides in the cell is reflected by an increase in the fluorescence. For each time, the fluorescence values of the unprotected controls are set at 100%. The results, in the presence of ergothioneine, are then expressed relative to this control value. A reduction in this value indicates a protective effect of the extract.

In the case of `C[N+](C)(C)[C@@H](Cc1c[nH]c(=S)[nH]1)C(=O)[O-]` [ergothioneine], the “% fluorescence observed ±SEM, expressed as % relative to the unprotected controls” value is, setting by setting: (5 min. of contact with ozone 10 ppm) 18.9 ± 2.4%; (10 min. of contact with ozone 10 ppm) 25.9 ± 3.8%; (20 min. of contact with ozone 10 ppm) 51.4 ± 10.2%. For the same molecule, the “drop in induced stress” value is 81.1% (5 minutes of exposure to ozone 10 ppm), 74.1% (10 minutes of exposure to ozone 10 ppm) and 48.6% (20 minutes of exposure to ozone 10 ppm).
